{
  "source": "paper PMC9898036",
  "about": "“VIP152 is a selective CDK9 inhibitor with pre-clinical in vitro and in vivo efficacy in chronic lymphocytic leukemia” (Leukemia, 2022)",
  "assay_in_all_cases": "DiscoverX KINOMEscan kinase profiling (468 assays)",
  "type_in_all_cases": "binding",
  "key": {"human kinome [1]": {"molecular_target": "human kinome (Homo sapiens, UniProt Q00526)", "conditions": "CDK3; 100 nM; read-out: Percent Control", "protocol": "(§1) Kinomescan Kinase Profiling Assay\n(§2) Kinomescan Assay was performed at DiscoverRX and described in Fabian, et al. 2005, Nat.\n(§3) Biotechnol. In brief, kinases were produced and subsequently tagged with DNA for qPCR detection.\n(§4) Streptavidin-coated magnetic beads were bound to biotinylated kinase ligands to serve as a solid support.\n(§5) VIP152 was dissolved in DMSO and tested across a 10 serial threefold dilution set and compared to a test\n(§6) compound and a DMSO control.\n(§7) Kinome map was produced via TreeSpot\n(§8) Analysis from DiscoverRX. […]"}, "human kinome [2]": {"molecular_target": "human kinome (Homo sapiens, UniProt P43405)", "conditions": "kinase SYK (Entrez SYK); compound concentration 1000 nM; read-out: Percent Control", "protocol": "as §1, §2, §3, §4, §5, §6, §7, §8"}, "human kinome [3]": {"molecular_target": "human kinome (Homo sapiens, UniProt P80192)", "conditions": "MLK1 (Entrez MAP3K9); 100 nM; read-out: Percent Control", "protocol": "as §1, §2, §3, §4, §5, §6, §7, §8"}, "human kinome [4]": {"molecular_target": "human kinome (Homo sapiens, UniProt P49674)", "conditions": "CSNK1E; 100 nM; read-out: Percent Control", "protocol": "as §1, §2, §3, §4, §5, §6, §7, §8"}, "human kinome [5]": {"molecular_target": "human kinome (Homo sapiens, UniProt P07949, M918T)", "conditions": "kinase RET(M918T) (Entrez RET); compound concentration 1000 nM; read-out: Percent Control", "protocol": "as §1, §2, §3, §4, §5, §6, §7, §8"}, "human kinome [6]": {"molecular_target": "human kinome (Homo sapiens, UniProt Q13976)", "sequence (Q13976 whole entry)": "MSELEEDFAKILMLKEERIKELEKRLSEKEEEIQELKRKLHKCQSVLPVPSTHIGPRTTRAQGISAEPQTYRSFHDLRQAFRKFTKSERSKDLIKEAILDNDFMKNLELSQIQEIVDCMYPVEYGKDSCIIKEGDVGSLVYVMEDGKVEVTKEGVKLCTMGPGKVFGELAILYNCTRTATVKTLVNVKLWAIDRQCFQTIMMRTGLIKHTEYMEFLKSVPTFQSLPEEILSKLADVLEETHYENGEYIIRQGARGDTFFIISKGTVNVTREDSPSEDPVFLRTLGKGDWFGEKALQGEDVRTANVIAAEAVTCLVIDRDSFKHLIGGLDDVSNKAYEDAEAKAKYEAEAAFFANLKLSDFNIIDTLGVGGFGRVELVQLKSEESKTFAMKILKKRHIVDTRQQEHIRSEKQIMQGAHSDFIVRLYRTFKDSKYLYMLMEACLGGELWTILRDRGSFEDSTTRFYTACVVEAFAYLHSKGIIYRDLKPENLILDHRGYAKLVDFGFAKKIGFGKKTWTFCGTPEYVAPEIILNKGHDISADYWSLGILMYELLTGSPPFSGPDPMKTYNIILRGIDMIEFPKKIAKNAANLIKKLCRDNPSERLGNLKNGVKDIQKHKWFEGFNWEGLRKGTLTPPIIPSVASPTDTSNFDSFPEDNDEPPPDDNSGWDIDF", "conditions": "read-out: Percent Control", "protocol": "as §1, §2, §3, §4, §5, §6, §7, §8"}, "human kinome [7]": {"molecular_target": "human kinome (Homo sapiens, UniProt Q8WU08)", "conditions": "kinase YANK1 (Entrez STK32A); compound concentration 1000 nM; read-out: Percent Control", "protocol": "as §1, §2, §3, §4, §5, §6, §7, §8"}, "human kinome [8]": {"molecular_target": "human kinome (Homo sapiens, UniProt O14757)", "conditions": "CHEK1; 100 nM; read-out: Percent Control", "protocol": "as §1, §2, §3, §4, §5, §6, §7, §8"}, "human kinome [9]": {"molecular_target": "human kinome (Homo sapiens, UniProt Q13131)", "conditions": "AMPK-alpha1 (Entrez PRKAA1); 100 nM; read-out: Percent Control", "protocol": "as §1, §2, §3, §4, §5, §6, §7, §8"}, "human kinome [10]": {"molecular_target": "human kinome (Homo sapiens, UniProt P51955)", "sequence (P51955 whole entry)": "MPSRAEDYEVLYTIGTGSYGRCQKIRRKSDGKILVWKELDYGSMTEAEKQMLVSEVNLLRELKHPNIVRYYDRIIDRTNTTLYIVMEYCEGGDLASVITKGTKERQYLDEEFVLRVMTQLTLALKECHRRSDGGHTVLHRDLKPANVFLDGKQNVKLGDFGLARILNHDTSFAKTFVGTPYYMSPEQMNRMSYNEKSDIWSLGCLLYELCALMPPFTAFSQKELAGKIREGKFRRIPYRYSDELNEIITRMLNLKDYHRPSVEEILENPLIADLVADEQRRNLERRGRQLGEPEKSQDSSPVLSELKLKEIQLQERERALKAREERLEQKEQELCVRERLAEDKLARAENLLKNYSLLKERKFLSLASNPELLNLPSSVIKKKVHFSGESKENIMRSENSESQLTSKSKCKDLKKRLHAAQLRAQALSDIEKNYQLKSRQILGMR", "conditions": "read-out: Percent Control", "protocol": "as §1, §2, §3, §4, §5, §6, §7, §8"}, "human kinome [11]": {"molecular_target": "human kinome (Homo sapiens, UniProt Q16832)", "conditions": "DDR2; 100 nM; read-out: Percent Control", "protocol": "as §1, §2, §3, §4, §5, §6, §7, §8"}, "human kinome [12]": {"molecular_target": "human kinome (Homo sapiens, UniProt Q9Y243)", "conditions": "AKT3; 100 nM; read-out: Percent Control", "protocol": "as §1, §2, §3, §4, §5, §6, §7, §8"}, "human kinome [13]": {"molecular_target": "human kinome (Homo sapiens, UniProt O75582)", "sequence (O75582 whole entry)": "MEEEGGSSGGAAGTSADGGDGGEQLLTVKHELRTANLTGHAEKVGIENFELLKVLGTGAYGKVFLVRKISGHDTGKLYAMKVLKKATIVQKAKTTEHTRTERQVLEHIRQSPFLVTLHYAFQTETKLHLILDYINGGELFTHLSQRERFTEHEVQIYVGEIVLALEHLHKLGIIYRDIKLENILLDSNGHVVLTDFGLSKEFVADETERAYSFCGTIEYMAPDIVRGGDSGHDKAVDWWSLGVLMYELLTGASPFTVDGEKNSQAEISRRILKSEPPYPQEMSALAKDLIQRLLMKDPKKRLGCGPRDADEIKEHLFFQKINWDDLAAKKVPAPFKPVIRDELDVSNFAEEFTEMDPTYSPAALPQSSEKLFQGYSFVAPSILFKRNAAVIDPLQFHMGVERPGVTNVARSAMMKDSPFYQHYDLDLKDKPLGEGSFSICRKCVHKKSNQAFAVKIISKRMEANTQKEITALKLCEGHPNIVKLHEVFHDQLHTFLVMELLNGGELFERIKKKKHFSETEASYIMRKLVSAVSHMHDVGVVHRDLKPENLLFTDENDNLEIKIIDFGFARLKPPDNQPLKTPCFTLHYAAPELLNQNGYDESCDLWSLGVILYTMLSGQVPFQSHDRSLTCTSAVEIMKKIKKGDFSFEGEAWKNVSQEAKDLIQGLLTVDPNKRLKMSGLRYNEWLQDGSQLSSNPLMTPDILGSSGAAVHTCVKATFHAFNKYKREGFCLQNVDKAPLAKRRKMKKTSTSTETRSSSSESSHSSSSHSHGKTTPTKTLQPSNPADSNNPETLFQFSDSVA", "conditions": "compound concentration 1000 nM, read-out: Percent Control", "protocol": "as §1, §2, §3, §4, §5, §6, §7, §8"}, "human kinome [14]": {"molecular_target": "human kinome (Homo sapiens, UniProt P22694)", "conditions": "read-out: Percent Control", "protocol": "as §1, §2, §3, §4, §5, §6, §7, §8"}, "human kinome [15]": {"molecular_target": "human kinome (Homo sapiens, UniProt Q14004)", "conditions": "read-out: Percent Control", "protocol": "as §1, §2, §3, §4, §5, §6, §7, §8"}, "human kinome [16]": {"molecular_target": "human kinome (Homo sapiens, UniProt P09769)", "conditions": "FGR; 100 nM; read-out: Percent Control", "protocol": "as §1, §2, §3, §4, §5, §6, §7, §8"}, "human kinome [17]": {"molecular_target": "human kinome (Homo sapiens, UniProt P00533, L858R)", "conditions": "EGFR(L858R); 100 nM; read-out: Percent Control", "protocol": "as §1, §2, §3, §4, §5, §6, §7, §8"}, "human kinome [18]": {"molecular_target": "human kinome (Homo sapiens, UniProt O14976)", "conditions": "GAK; 100 nM; read-out: Percent Control", "protocol": "as §1, §2, §3, §4, §5, §6, §7, §8"}, "human kinome [19]": {"molecular_target": "human kinome (Homo sapiens, UniProt P36888, D835V)", "conditions": "FLT3(D835V); 100 nM; read-out: Percent Control", "protocol": "as §1, §2, §3, §4, §5, §6, §7, §8"}, "human kinome [20]": {"molecular_target": "human kinome (Homo sapiens, UniProt Q6P2M8)", "sequence (Q6P2M8 whole entry)": "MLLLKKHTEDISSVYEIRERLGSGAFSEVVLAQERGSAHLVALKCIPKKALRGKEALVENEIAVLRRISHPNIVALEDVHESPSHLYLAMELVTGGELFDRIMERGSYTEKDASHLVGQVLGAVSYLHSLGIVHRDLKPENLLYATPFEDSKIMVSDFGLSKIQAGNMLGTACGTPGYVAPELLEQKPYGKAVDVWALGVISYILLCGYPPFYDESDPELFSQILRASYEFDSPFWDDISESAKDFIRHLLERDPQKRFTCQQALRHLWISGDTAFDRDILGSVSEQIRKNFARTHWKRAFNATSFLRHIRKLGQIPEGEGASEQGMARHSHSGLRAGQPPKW", "conditions": "CAMK1B (Entrez PNCK); 100 nM; read-out: Percent Control", "protocol": "as §1, §2, §3, §4, §5, §6, §7, §8"}, "human kinome [21]": {"molecular_target": "human kinome (Homo sapiens, UniProt Q9P286)", "sequence (Q9P286 whole entry)": "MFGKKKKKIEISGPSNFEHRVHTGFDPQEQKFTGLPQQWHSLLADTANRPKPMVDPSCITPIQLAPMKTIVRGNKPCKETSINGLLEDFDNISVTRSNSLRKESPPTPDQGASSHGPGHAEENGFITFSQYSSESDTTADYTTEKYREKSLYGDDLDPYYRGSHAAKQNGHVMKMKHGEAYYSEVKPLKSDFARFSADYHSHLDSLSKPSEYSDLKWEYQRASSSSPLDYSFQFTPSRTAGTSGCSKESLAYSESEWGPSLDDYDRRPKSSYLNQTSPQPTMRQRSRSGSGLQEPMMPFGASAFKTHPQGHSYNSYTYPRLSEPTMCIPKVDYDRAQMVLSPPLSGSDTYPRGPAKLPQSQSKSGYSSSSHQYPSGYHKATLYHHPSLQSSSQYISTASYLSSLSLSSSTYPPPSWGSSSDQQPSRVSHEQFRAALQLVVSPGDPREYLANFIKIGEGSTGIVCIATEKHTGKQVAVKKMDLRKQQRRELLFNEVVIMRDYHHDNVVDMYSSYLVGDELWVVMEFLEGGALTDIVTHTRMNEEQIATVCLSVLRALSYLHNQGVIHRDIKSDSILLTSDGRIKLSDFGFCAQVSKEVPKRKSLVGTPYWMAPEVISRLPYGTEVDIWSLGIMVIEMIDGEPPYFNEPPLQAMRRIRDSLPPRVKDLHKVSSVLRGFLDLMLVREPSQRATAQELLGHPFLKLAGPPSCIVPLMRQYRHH", "conditions": "read-out: Percent Control", "protocol": "as §1, §2, §3, §4, §5, §6, §7, §8"}, "human kinome [22]": {"molecular_target": "human kinome (Homo sapiens, UniProt Q8IVH8)", "conditions": "MAP4K3; 100 nM; read-out: Percent Control", "protocol": "as §1, §2, §3, §4, §5, §6, §7, §8"}, "human kinome [23]": {"molecular_target": "human kinome (Homo sapiens, UniProt Q15349)", "sequence (Q15349 whole entry)": "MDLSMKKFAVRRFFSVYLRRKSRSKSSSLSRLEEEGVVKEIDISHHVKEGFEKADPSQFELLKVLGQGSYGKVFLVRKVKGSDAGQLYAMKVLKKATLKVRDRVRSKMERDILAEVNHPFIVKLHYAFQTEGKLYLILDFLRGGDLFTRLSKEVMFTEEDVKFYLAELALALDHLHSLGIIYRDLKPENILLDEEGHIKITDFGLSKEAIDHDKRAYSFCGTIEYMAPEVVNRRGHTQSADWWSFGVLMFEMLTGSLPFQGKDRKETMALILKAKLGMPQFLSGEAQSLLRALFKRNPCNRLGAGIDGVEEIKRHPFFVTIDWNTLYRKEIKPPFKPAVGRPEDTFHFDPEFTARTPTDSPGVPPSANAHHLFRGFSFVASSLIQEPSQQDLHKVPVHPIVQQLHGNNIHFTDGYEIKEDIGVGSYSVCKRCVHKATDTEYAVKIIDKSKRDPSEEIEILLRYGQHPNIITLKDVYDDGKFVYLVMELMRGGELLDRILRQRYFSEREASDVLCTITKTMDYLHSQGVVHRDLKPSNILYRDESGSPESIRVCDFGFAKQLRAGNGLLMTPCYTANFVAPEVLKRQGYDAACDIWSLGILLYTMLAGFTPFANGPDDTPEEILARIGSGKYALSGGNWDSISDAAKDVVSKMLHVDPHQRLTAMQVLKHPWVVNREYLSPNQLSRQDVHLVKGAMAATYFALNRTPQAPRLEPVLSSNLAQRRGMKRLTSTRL", "conditions": "compound concentration 1000 nM, read-out: Percent Control", "protocol": "as §1, §2, §3, §4, §5, §6, §7, §8"}, "human kinome [24]": {"molecular_target": "human kinome (Homo sapiens, UniProt P15735)", "sequence (P15735 whole entry)": "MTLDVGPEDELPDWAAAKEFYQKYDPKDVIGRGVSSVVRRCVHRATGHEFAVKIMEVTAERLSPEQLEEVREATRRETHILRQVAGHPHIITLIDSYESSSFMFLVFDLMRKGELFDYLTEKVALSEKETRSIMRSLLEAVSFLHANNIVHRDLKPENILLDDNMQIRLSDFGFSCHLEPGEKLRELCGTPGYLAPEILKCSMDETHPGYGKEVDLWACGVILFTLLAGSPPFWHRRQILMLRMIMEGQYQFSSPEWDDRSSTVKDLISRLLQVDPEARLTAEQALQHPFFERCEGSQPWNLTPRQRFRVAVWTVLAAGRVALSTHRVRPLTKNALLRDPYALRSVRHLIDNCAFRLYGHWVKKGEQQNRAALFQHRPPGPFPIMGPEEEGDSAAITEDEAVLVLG", "conditions": "read-out: Percent Control", "protocol": "as §1, §2, §3, §4, §5, §6, §7, §8"}, "human kinome [25]": {"molecular_target": "human kinome (Homo sapiens, UniProt O14578)", "conditions": "CIT; 100 nM; read-out: Percent Control", "protocol": "as §1, §2, §3, §4, §5, §6, §7, §8"}, "human kinome [26]": {"molecular_target": "human kinome (Homo sapiens, UniProt O95382)", "conditions": "ASK2 (Entrez MAP3K6); 100 nM; read-out: Percent Control", "protocol": "as §1, §2, §3, §4, §5, §6, §7, §8"}, "human kinome [27]": {"molecular_target": "human kinome (Homo sapiens, UniProt Q04759)", "sequence (Q04759 whole entry)": "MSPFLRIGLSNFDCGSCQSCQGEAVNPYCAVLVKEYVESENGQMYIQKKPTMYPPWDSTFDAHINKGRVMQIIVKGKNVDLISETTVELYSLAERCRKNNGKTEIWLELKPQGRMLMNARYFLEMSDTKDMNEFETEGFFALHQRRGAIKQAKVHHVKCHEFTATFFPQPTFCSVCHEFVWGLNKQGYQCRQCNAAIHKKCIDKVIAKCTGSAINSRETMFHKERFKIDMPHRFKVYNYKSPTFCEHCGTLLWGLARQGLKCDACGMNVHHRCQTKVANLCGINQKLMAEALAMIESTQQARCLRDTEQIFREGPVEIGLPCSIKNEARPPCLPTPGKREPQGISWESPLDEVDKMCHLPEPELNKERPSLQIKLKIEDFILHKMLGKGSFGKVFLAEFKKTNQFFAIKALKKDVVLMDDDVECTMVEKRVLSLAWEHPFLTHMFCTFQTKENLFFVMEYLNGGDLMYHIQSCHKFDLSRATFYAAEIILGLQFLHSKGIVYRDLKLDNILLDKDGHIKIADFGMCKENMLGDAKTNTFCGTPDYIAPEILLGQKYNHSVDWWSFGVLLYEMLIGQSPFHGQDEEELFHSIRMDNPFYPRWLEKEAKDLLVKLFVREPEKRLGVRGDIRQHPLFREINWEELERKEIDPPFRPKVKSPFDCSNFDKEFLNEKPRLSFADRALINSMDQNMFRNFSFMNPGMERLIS", "conditions": "read-out: Percent Control", "protocol": "as §1, §2, §3, §4, §5, §6, §7, §8"}, "human kinome [28]": {"molecular_target": "human kinome (Homo sapiens, UniProt P10721, V559D/V654A)", "conditions": "KIT(V559D,V654A); 100 nM; read-out: Percent Control", "protocol": "as §1, §2, §3, §4, §5, §6, §7, §8"}, "human kinome [29]": {"molecular_target": "human kinome (Homo sapiens, UniProt P57059)", "conditions": "kinase SIK (Entrez SIK1); compound concentration 1000 nM; read-out: Percent Control", "protocol": "as §1, §2, §3, §4, §5, §6, §7, §8"}},
  "note": "Like-named read-outs stand apart in the source and are kept apart here.",
  "data": [
    {"smiles": "COc1cc(F)ccc1-c1cc(Nc2cc(CS(C)(=N)=O)ccn2)ncc1F", "note": "(stereo not shown) [VIP152]", "values": [
      {"measurement": "remaining binding at 0.1 µM", "setting": "human kinome [1]", "result": 100, "unit": "%"},
      {"measurement": "remaining binding at 1 µM", "setting": "human kinome [2]", "result": 38, "unit": "%"},
      {"measurement": "remaining binding at 0.1 µM", "setting": "human kinome [3]", "result": 100, "unit": "%"},
      {"measurement": "remaining binding at 0.1 µM", "setting": "human kinome [4]", "result": 95, "unit": "%"},
      {"measurement": "remaining binding at 1 µM", "setting": "human kinome [5]", "result": 73, "unit": "%"},
      {"measurement": "remaining binding at 0.1 µM", "setting": "human kinome [6]; PRKG1, 100 nM", "result": 100, "unit": "%"},
      {"measurement": "remaining binding at 1 µM", "setting": "human kinome [6]; kinase PRKG1 (Entrez PRKG1), compound concentration 1000 nM", "result": 91, "unit": "%"},
      {"measurement": "remaining binding at 1 µM", "setting": "human kinome [7]", "result": 97, "unit": "%"},
      {"measurement": "remaining binding at 0.1 µM", "setting": "human kinome [8]", "result": 100, "unit": "%"},
      {"measurement": "remaining binding at 0.1 µM", "setting": "human kinome [9]", "result": 89, "unit": "%"},
      {"measurement": "remaining binding at 0.1 µM", "setting": "human kinome [10]; NEK2, 100 nM", "result": 100, "unit": "%"},
      {"measurement": "remaining binding at 1 µM", "setting": "human kinome [10]; kinase NEK2 (Entrez NEK2), compound concentration 1000 nM", "result": 84, "unit": "%"},
      {"measurement": "remaining binding at 0.1 µM", "setting": "human kinome [11]", "result": 79, "unit": "%"},
      {"measurement": "remaining binding at 0.1 µM", "setting": "human kinome [12]", "result": 100, "unit": "%"},
      {"measurement": "remaining binding at 1 µM", "setting": "human kinome [13]; kinase RPS6KA5(Kin.Dom.1-N-terminal) (Entrez RPS6KA5)", "result": 100, "unit": "%"},
      {"measurement": "remaining binding at 1 µM", "setting": "human kinome [13]; kinase RPS6KA5(Kin.Dom.2-C-terminal) (Entrez RPS6KA5)", "result": 100, "unit": "%"},
      {"measurement": "remaining binding at 0.1 µM", "setting": "human kinome [14]; PKAC-beta (Entrez PRKACB), 100 nM", "result": 100, "unit": "%"},
      {"measurement": "remaining binding at 1 µM", "setting": "human kinome [14]; kinase PKAC-beta (Entrez PRKACB), compound concentration 1000 nM", "result": 94, "unit": "%"},
      {"measurement": "remaining binding at 0.1 µM", "setting": "human kinome [15]", "result": 66, "unit": "%"},
      {"measurement": "remaining binding at 0.1 µM", "setting": "human kinome [16]", "result": 100, "unit": "%"},
      {"measurement": "remaining binding at 0.1 µM", "setting": "human kinome [17]", "result": 100, "unit": "%"},
      {"measurement": "remaining binding at 0.1 µM", "setting": "human kinome [18]", "result": 79, "unit": "%"},
      {"measurement": "remaining binding at 0.1 µM", "setting": "human kinome [19]", "result": 100, "unit": "%"},
      {"measurement": "remaining binding at 0.1 µM", "setting": "human kinome [20]", "result": 87, "unit": "%"},
      {"measurement": "remaining binding at 0.1 µM", "setting": "human kinome [21]; PAK7, 100 nM", "result": 100, "unit": "%"},
      {"measurement": "remaining binding at 1 µM", "setting": "human kinome [21]; kinase PAK7 (Entrez PAK7), compound concentration 1000 nM", "result": 78, "unit": "%"},
      {"measurement": "remaining binding at 0.1 µM", "setting": "human kinome [22]", "result": 100, "unit": "%"},
      {"measurement": "remaining binding at 1 µM", "setting": "human kinome [23]; kinase RSK3(Kin.Dom.1-N-terminal) (Entrez RPS6KA2)", "result": 98, "unit": "%"},
      {"measurement": "remaining binding at 1 µM", "setting": "human kinome [23]; kinase RSK3(Kin.Dom.2-C-terminal) (Entrez RPS6KA2)", "result": 92, "unit": "%"},
      {"measurement": "remaining binding at 0.1 µM", "setting": "human kinome [24]; PHKG2, 100 nM", "result": 100, "unit": "%"},
      {"measurement": "remaining binding at 1 µM", "setting": "human kinome [24]; kinase PHKG2 (Entrez PHKG2), compound concentration 1000 nM", "result": 88, "unit": "%"},
      {"measurement": "remaining binding at 0.1 µM", "setting": "human kinome [25]", "result": 100, "unit": "%"},
      {"measurement": "remaining binding at 0.1 µM", "setting": "human kinome [26]", "result": 100, "unit": "%"},
      {"measurement": "remaining binding at 0.1 µM", "setting": "human kinome [27]; PRKCQ, 100 nM", "result": 100, "unit": "%"},
      {"measurement": "remaining binding at 1 µM", "setting": "human kinome [27]; kinase PRKCQ (Entrez PRKCQ), compound concentration 1000 nM", "result": 62, "unit": "%"},
      {"measurement": "remaining binding at 0.1 µM", "setting": "human kinome [28]", "result": 100, "unit": "%"},
      {"measurement": "remaining binding at 1 µM", "setting": "human kinome [29]", "result": 88, "unit": "%"}
    ]}
  ]
}
